Converted amounts (≈) assume the structure as drawn. The source made the active and inactive calls. No cut-off for these calls is given here.
What was measured:
Hepatitis C virus [1] = experiment: Antiviral activity against Hepatitis C virus infected in Ava5 cell assessed as suppression of HCV replication at 0.6 ug/ml; type: functional, organism-based; conditions: Hepacivirus hominis
Hepatitis C virus [2] = experiment: Antiviral activity against Hepatitis C virus infected in Ava5 cell assessed as suppression of HCV replication at 0.06 ug/ml; type: functional, organism-based; conditions: Hepacivirus hominis
Hepatitis C virus [3] = experiment: Antiviral activity against Hepatitis C virus infected in HEK293 cell expressing sip-L protein; type: functional, organism-based, Hepacivirus hominis
Hepatitis C virus [4] = experiment: Antiviral activity against Hepatitis C virus infected in Ava5 cell assessed as suppression of HCV replication at 6 ug/ml; type: functional, organism-based; conditions: Hepacivirus hominis
Hepatitis C virus [5] = experiment: Antiviral activity against Hepatitis C virus infected in HEK293 cell expressing sip-L protein assessed viral RNA level; type: functional, organism-based, Hepacivirus hominis

IC50 (Hepatitis C virus [3]): 350 µg/mL (≈ 1170 µM) | EC50 (Hepatitis C virus [5]): 0.8 µg/mL (≈ 2.66 µM)
Compound: C[C@@]1(F)[C@H](O)[C@@H](CO)O[C@H]1n1cc(F)c2c(N)ncnc21
Activity (Hepatitis C virus [1]): Active | Activity (Hepatitis C virus [2]): inactive | Activity (Hepatitis C virus [4]): Active

— ChEMBL document CHEMBL1287808, “Synthesis and anti-HCV activity of a new 2'-deoxy-2'-fluoro-2'-C-methyl nucleoside analogue” (Bioorg Med Chem Lett, 2010)
